From US20230210890A1, “COMPOSITIONS AND METHODS OF TREATING COVID-19 WITH HEPARIN OR OTHER NEGATIVELY CHARGED MOLECULES” (Siemens Healthcare Diagnostics Inc., priority 2020, published 2023)

Tests used:
[1] = test system: hospitalized patients with Covid-19; settings: WHO Solidarity Trial; cited from earlier work
SARS CoV-2 = settings: whole blood or plasma samples collected with the anticoagulant
[2] = test system: adults with mild COVID-19; settings: cited from earlier work

Molecule	effect on hospitalized patients with Covid-19 [1]	inhibition of certain SARS CoV-2 assays (SARS CoV-2)	also measured
CCN(CCO)CCCC(C)Nc1ccnc2cc(Cl)ccc12 (centres unmarked) [hydroxychloroquine]	little or no effect	–	–
Cc1cccc(C)c1OCC(=O)N[C@@H](Cc1ccccc1)[C@@H](O)C[C@H](Cc1ccccc1)NC(=O)[C@H](C(C)C)N1CCCNC1=O [lopinavir]	little or no effect	–	–
heparin sodium [sodium heparin]	–	inhibited	–
ivermectin	–	–	effect on the duration of symptoms [2]: not have a significant effect
lithium heparin	–	inhibited	–
